From patent US4812562A, “Cephalosporin derivatives” (Taisho Pharmaceutical Co., Ltd., priority 1985, dated 1989)
Converted amounts (≈) assume the structure as drawn. Counter-ions that a name gives are not always drawn. Like-named read-outs stand apart in the source and are kept apart here.

Columns and labels:
[1] = system: Escherichia coli NIHJ JC-2; assay: MIC by agar plate dilution method, Escherichia coli NIHJ JC-2; assay type: cell-based; details: NIHJJC2, inoculum size 10^6 cells/ml
Experimental: (§1) Subsequently, there were tested the minimal inhibitory concentration (MIC) of the compounds of the present invention against various bacteria and the concentration of the compound in blood after oral administration to rats, and the results are shown.
(§2) The antibacterial activities of the compound of the present invention against various bacteria (inoculum size: 10^6 cells/ml) were tested by the agar plate dilution method, and the results are shown in the following Table 1.

[2] = system: Klebsiella pneumoniae T 25; assay: MIC by agar plate dilution method, Klebsiella pneumoniae T 25; assay type: cell-based; details: T25, inoculum size 10^6 cells/ml
Experimental: as §1, §2

[3] = system: Morganella morganii IID 602; assay: MIC by agar plate dilution method, Morganella morganii IID 602; assay type: cell-based; details: IID602
Experimental: as §1, §2

[4] = system: Serratia marcescens IID 618; assay: MIC by agar plate dilution method, Serratia marcescens IID 618; assay type: cell-based; details: IID618
Experimental: as §1, §2

[5] = system: Staphylococcus aureus FDA 209P-JC; assay: MIC by agar plate dilution method, Staphylococcus aureus FDA 209P-JC; assay type: cell-based; details: FDA209P, inoculum size 10^6 cells/ml
Experimental: as §1, §2

Bacillus cereus S 1101 = assay: MIC by agar plate dilution method, Bacillus cereus S 1101; assay type: cell-based; details: S1101
Experimental: as §1, §2

[6] = concentration of the compound in blood after oral administration to rats; assay type: in vivo, Male wister rats; details: rat, 50 mg/kg, bioassay (Escherichia coli SC507)
Experimental: Male wister rats (7 weeks old) were administered orally with the test compound, and the change of the concentration of the compound in blood was measured.
Dosage of the test compound: 50 mg/kg
Quantitative method: Bioassy
(test bacterium: Escherichia coli SC507)

[7] = Morganella morganii IID 602, inoculum size 10^6 cells/ml, read-out: MIC
[8] = Serratia marcescens IID 618, inoculum size 10^6 cells/ml, read-out: MIC
[9] = Bacillus cereus S 1101, inoculum size 10^6 cells/ml, read-out: MIC

Row | MIC [1] | MIC [2] | MIC [3, 7] | MIC [4, 8] | MIC [5] | MIC (Bacillus cereus S 1101; [9]) | concentration at 1 h [6] | concentration at 2 h [6] | concentration at 4 h [6] | SMILES | MIC ([3]; Morganella morganii) | MIC ([4]; Serratia marcescens) | MIC (Bacillus cereus S 1101; Bacillus cereus)
1 | 0.78 µg/mL (≈ 1.51 µM) | 6.25 µg/mL (≈ 12.1 µM) | ≤ 0.1 µg/mL | 1.56 µg/mL (≈ 3.01 µM) | 25 µg/mL (≈ 48.3 µM) | 0.39 µg/mL (≈ 0.754 µM) | – | – | – | COCCSC1=C(C(=O)O)N2C(=O)[C@@H](NC(=O)/C(=N\OCC(=O)O)c3csc(N)n3)[C@H]2SC1 [B] | – | – | –
2 | 1.56 µg/mL (≈ 3.09 µM) | 25 µg/mL (≈ 49.5 µM) | < 0.1 µg/mL | 1.56 µg/mL (≈ 3.09 µM) | 6.25 µg/mL (≈ 12.4 µM) | 0.2 µg/mL (≈ 0.396 µM) | 25600 ng/mL | 9100 ng/mL | 4000 ng/mL | Nc1nc(/C(=N/OCC(=O)O)C(=O)N[C@@H]2C(=O)N3C(C(=O)O)=C(SCCF)CS[C@H]23)cs1 [C] | – | – | –
3 | 1.56 µg/mL (≈ 2.94 µM) | 12.5 µg/mL (≈ 23.6 µM) | 0.1 µg/mL (≈ 0.188 µM) | 0.78 µg/mL (≈ 1.47 µM) | 12.5 µg/mL (≈ 23.6 µM) | 0.2 µg/mL (≈ 0.377 µM) | – | – | – | NC(=O)CCSC1=C(C(=O)O)N2C(=O)[C@@H](NC(=O)/C(=N\OCC(=O)O)c3csc(N)n3)[C@H]2SC1 [F] | – | – | –
4 | 0.78 µg/mL (≈ 1.51 µM) | 3.13 µg/mL (≈ 6.06 µM) | 0.39 µg/mL (≈ 0.755 µM) | 0.39 µg/mL (≈ 0.755 µM) | 6.25 µg/mL (≈ 12.1 µM) | 0.2 µg/mL (≈ 0.387 µM) | 11900 ng/mL | 16600 ng/mL | 15400 ng/mL | NCCCSC1=C(C(=O)O)N2C(=O)[C@@H](NC(=O)/C(=N\OCC(=O)O)c3csc(N)n3)[C@H]2SC1 [D] | – | – | –
5 | 0.39 µg/mL (≈ 0.708 µM) | 1.56 µg/mL (≈ 2.83 µM) | ≤ 0.1 µg/mL | 0.78 µg/mL (≈ 1.42 µM) | 12.5 µg/mL (≈ 22.7 µM) | 0.39 µg/mL (≈ 0.708 µM) | – | – | – | Nc1nc(/C(=N/OCC(=O)O)C(=O)N[C@@H]2C(=O)N3C(C(=O)O)=C(SCc4ccccn4)CS[C@H]23)cs1 [E] | – | – | –
6 | 0.39 µg/mL | 6.25 µg/mL | ≤ 0.1 µg/mL | 0.78 µg/mL | 12.5 µg/mL | 0.2 µg/mL | – | – | – | NC(=O)OCCSC1=C(C(=O)O)N2C(=O)[C@@H](NC(=O)/C(=N\OCC(=O)O)c3csc(N)n3)[C@H]2SC1 [G, 7β-{α-(2-aminothiazole-4-yl)-α-[(Z)-carboxymethoxyimino]acetamido}-3-(2-carbamoyloxy)ethylthio-3-cephem-4-carboxylic acid sodium salt] | – | – | –
7 | 1.56 µg/mL | 25 µg/mL | 0.39 µg/mL | 1.56 µg/mL | 50 µg/mL | 0.78 µg/mL | – | – | – | CSC1=C(C(=O)O)N2C(=O)[C@@H](NC(=O)/C(=N\OCC(=O)O)c3csc(N)n3)[C@H]2SC1 [XX, 7{(2-aminothiazole-4-yl)-[(Z)carboxy-methoxyimino]acetamido3-methylthio-3cephem-4-carboxylic acid sodium salt, reference compound] | – | – | –
8 | 1.56 µg/mL (≈ 3.13 µM) | 25 µg/mL (≈ 50.1 µM) | < 0.1 µg/mL | 0.78 µg/mL (≈ 1.56 µM) | 6.25 µg/mL (≈ 12.5 µM) | 0.2 µg/mL (≈ 0.401 µM) | 28700 ng/mL | 19500 ng/mL | 4300 ng/mL | N#CCSC1=C(C(=O)O)N2C(=O)[C@@H](NC(=O)/C(=N\OCC(=O)O)c3csc(N)n3)[C@H]2SC1 [A] | – | – | –

Row | SMILES | MIC [1] | MIC [2] | MIC [3, 7] | MIC [4, 8] | MIC [5] | MIC (Bacillus cereus S 1101; [9]) | concentration at 1 h [6] | concentration at 2 h [6] | concentration at 4 h [6] | MIC ([3]; Morganella morganii) | MIC ([4]; Serratia marcescens) | MIC (Bacillus cereus S 1101; Bacillus cereus)
9 | CC1=C(C(=O)O)N2C(=O)[C@@H](NC(=O)[C@H](N)c3ccccc3)[C@H]2SC1 [YY, Cefalexin, reference compound] | – | – | – | – | 0.78 µg/mL (≈ 2.25 µM) | – | – | – | – | 200 µg/mL (≈ 576 µM) | > 400 µg/mL | ≤ 0.1 µg/mL
